Data reported in patent US20240116947A1, “PYRIDO OXAZINE DERIVATIVES AS ALK5 INHIBITORS” (CHIESI FARMACEUTICI S.P.A., priority 2020, published 2024).

Molecular target: human ALK5 (Homo sapiens (Human), UniProt P36897)
Assay: ADP-GLO Kinases assay, inhibition of ALK5 enzymatic activity
Assay type: biochemical
Conditions: Table 4; potency bins; purified recombinant human ALK5, ADP-Glo, 25° C.; read-out: ALK5 IC50
Experimental: The enzymatic activity of compounds of the present invention was monitored measuring the formation of ADP using the ADP-GLO Kinases assay. Following the incubation of the purified enzyme, a substrate and ATP, the produced ADP was converted into ATP, which in turn was converted into light by Ultra-Glo Luciferase. The luminescent signal positively correlated with ADP amount and kinase activity. Briefly, the kinase reaction was performed by incubating 2.6 nM of the purified, commercially available human ALK5 (recombinant TGF β1 N-term GST-tagged, 80-end), a final concentration of TGFβ1 peptide 94.5 μM (Promega, T36-58) and ultra-pure ATP (Promega V915B). […] All reactions/incubations were performed at 25° C. Compound and ALK5 kinase were mixed and incubated for 15 mins. Reactions were initiated by addition of ATP at a final concentration in the assay of 0.83 μM. After an incubation of 150 min, the reaction was stopped, and ADP production detected with ADP-Glo kit according to manufacturer's indications. The assay was performed in 384-well format and was validated using a selection of reference compounds that was tested in 11 point concentration-response curve.

human ALK5, sequence (P36897 80-503 limits assumed): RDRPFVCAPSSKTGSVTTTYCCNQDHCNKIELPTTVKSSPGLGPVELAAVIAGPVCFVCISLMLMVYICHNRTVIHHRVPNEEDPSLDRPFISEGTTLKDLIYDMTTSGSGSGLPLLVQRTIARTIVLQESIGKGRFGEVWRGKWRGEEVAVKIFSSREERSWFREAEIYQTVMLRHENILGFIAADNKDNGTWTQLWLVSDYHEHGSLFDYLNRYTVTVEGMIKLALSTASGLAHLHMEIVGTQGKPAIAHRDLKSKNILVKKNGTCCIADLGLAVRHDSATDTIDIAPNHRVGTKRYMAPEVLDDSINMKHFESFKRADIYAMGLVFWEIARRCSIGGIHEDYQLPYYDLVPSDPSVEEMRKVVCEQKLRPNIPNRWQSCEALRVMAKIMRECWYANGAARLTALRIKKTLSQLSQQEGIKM

IC50 [nM]	Structure (SMILES)
1 to 5	Nc1cc(N2CCOc3cnc(-c4cc(Cl)ccc4F)cc32)ccn1 [Example 3, 4-[7-(5-chloro-2-fluorophenyl)-1H,2H,3H-pyrido[3,4-b][1,4]oxazin-1-yl]pyridin-2-amine]
< 1	CN(CCC(=O)Nc1cc(N2CCOc3cnc(-c4cc(Cl)ccc4F)cc32)ccn1)C1COC1 [Example 19, N-{4-[7-(5-chloro-2-fluorophenyl)-1H,2H,3H-pyrido[3,4-b][1,4]oxazin-1-yl]pyridin-2-yl}-3-[methyl(oxetan-3-yl)amino]propanamide]
< 1	CN1CCN(CC(=O)Nc2cc(N3CCOc4cnc(-c5cc(Cl)ccc5F)cc43)ccn2)CC1 [Example 43, N-{4-[7-(5-chloro-2-fluorophenyl)-1H,2H,3H-pyrido[3,4-b][1,4]oxazin-1-yl]pyridin-2-yl}-2-(4-methylpiperazin-1-yl)acetamide]
1 to 5	Nc1cc(N2CCOc3cnc(-c4cc(C5CC5)ccc4F)cc32)ccn1 [Example 12, 4-[7-(5-cyclopropyl-2-fluorophenyl)-1H,2H,3H-pyrido[3,4-b][1,4]oxazin-1-yl]pyridin-2-amine]
5 to 10	Nc1cc(N2CCOc3cnc(-c4cccc(Cl)c4)cc32)ccn1 [Example 5, 4-[7-(3-chlorophenyl)-1H,2H,3H-pyrido[3,4-b][1,4]oxazin-1-yl]pyridin-2-amine]
< 1	CN1CCN(CCC(=O)Nc2cc(N3CCOc4cnc(-c5cc(Cl)ccc5F)cc43)ccn2)CC1=O [Example 22, N-{4-[7-(5-chloro-2-fluorophenyl)-1H,2H,3H-pyrido[3,4-b][1,4]oxazin-1-yl]pyridin-2-yl}-3-(4-methyl-3-oxopiperazin-1-yl)propanamide]
< 1	COC(=O)C1CN(CCC(=O)Nc2cc(N3CCOc4cnc(-c5cc(Cl)ccc5F)cc43)ccn2)CCN1 (stereo not shown) [Example 46, Methyl 4-[2-({4-[7-(5-chloro-2-fluorophenyl)-1H,2H,3H-pyrido[3,4-b][1,4]oxazin-1-yl]pyridin-2-yl}carbamoyl)ethyl]piperazine-2-carboxylate]
< 1	CC(C)c1ccc(F)c(-c2cc3c(cn2)OCCN3c2ccnc(NC(=O)CCN3CCN(C)CC3)c2)c1 [Example 34, N-(4-{7-[2-fluoro-5-(propan-2-yl)phenyl]-1H,2H,3H-pyrido[3,4-b][1,4]oxazin-1-yl}pyridin-2-yl)-3-(4-methylpiperazin-1-yl)propanamide]
< 1	CNC(=O)CCN1CCN(CCC(=O)Nc2cc(N3CCOc4cnc(-c5cc(Cl)ccc5F)cc43)ccn2)CC1 [Example 31, 3-{4-[2-({4-[7-(5-chloro-2-fluorophenyl)-1H,2H,3H-pyrido[3,4-b][1,4]oxazin-1-yl]pyridin-2-yl}carbamoyl)ethyl]piperazin-1-yl}-N-methylpropanamide]
< 1	O=C(CCN(CCO)CCO)Nc1cc(N2CCOc3cnc(-c4cc(Cl)ccc4F)cc32)ccn1 [Example 18, 3-[bis(2-hydroxyethyl)amino]-N-{4-[7-(5-chloro-2-fluorophenyl)-1H,2H,3H-pyrido[3,4-b][1,4]oxazin-1-yl]pyridin-2-yl}propanamide]
5 to 10	Nc1cc(N2CCOc3cnc(-c4cc(F)ccc4F)cc32)ccn1 [Example 4, 4-[7-(2,5-difluorophenyl)-1H,2H,3H-pyrido[3,4-b][1,4]oxazin-1-yl]pyridin-2-amine]
< 1	CN(CCNS(C)(=O)=O)CCC(=O)Nc1cc(N2CCOc3cnc(-c4cc(Cl)ccc4F)cc32)ccn1 [Example 29, N-{4-[7-(5-chloro-2-fluorophenyl)-1H,2H,3H-pyrido[3,4-b][1,4]oxazin-1-yl]pyridin-2-yl}-3-[(2-methanesulfonamidoethyl)(methyl)amino]propanamide]
< 1	CN1CCC(CCC(=O)Nc2cc(N3CCOc4cnc(-c5nc(Cl)ccc5F)cc43)ccn2)CC1 [Example 39, N-{4-[7-(6-chloro-3-fluoropyridin-2-yl)-1H,2H,3H-pyrido[3,4-b][1,4]oxazin-1-yl]pyridin-2-yl}-3-(1-methylpiperidin-4-yl)propanamide]
